Results: patent US20260209180A1, “PROTEASE INHIBITORS FOR TREATING OR PREVENTING CORONAVIRUS INFECTION” (Merck Sharp & Dohme LLC, priority 2023, published 2026)

Each compound was assayed against SARS2 coronavirus 3CL protease (Severe acute respiratory syndrome coronavirus 2, UniProt P0DTD1) (assay: SARS2 Coronavirus 3CL Protease Assay (FRET)). Conditions: 5 nM protease pre-incubated with compound 30 minutes; 15 uM peptide substrate; 4 h room temperature; read-out: FRET Potency (nM); IC50 values in the SARS2 3CLPro FRET assay.
Assay type: biochemical
Protocol: The enzymatic activity of SARS2 coronavirus 3CL protease was determined in a FRET (fluorescence resonance energy transfer)-based assay measuring the cleavage of a peptide substrate by recombinantly expressed and purified enzyme. Cleavage of the peptide SEQ ID NO: 1 (CPC Scientific) by SARS2 3CL protease was measured in reaction buffer (50 mM Hepes pH 7.5, 0.01% Triton X-100, 0.01% BSA, 2 mM DTT). […] Room temperature reactions (4 h) were quenched by addition of a high dose of inhibitor and read on an appropriate plate reader (excitation wavelength=495 nm, emission wavelength=520 nm). Data were analyzed by a standard 4 parameter fit to determine IC50 values.

SMILES | IC50
CC(F)(F)CC[C@H](NC(=O)c1cc(Cl)cnc1NC(=O)c1cccc(F)c1)C(=O)C(=O)NC1CC1 [Example 29, 5-chloro-N-[(1S)-1-[2-(cyclopropylamino)-2-oxo-acetyl]-4,4-difluoro-pentyl]-2-[(3-fluorobenzoyl)amino]pyridine-3-carboxamide] | 20.4 nM
CNC(=O)C(=O)[C@H](CCC(C)(F)F)NC(=O)c1cc(F)cnc1NC(=O)C1CC(F)(F)C1 [Example 28, 2-[(3,3-difluorocyclobutanecarbonyl)amino]-N-[(1S)-4,4-difluoro-1-[2-(methylamino)-2-oxo-acetyl]pentyl]-5-fluoro-pyridine-3-carboxamide] | 19.8 nM
CNC(=O)C(=O)[C@H](CCC(C)F)NC(=O)c1cc(Cl)ccc1NC(=O)OC (single isomer, unassigned) [Example 6A] | 25.8 nM
CNC(=O)C(=O)[C@H](CCC(C)(F)F)NC(=O)c1cc(Cl)ccc1NC(=O)C1CCc2scnc21 (stereo partly drawn) [Example 9, N-[4-chloro-2-[[(1S)-4,4-difluoro-1-[2-(methylamino)-2-oxo-acetyl]pentyl]carbamoyl]phenyl]-5,6-dihydro-4H-cyclopenta[d]thiazole-4-carboxamide] | 7 nM
CNC(=O)C(=O)[C@H](CCC(C)(F)F)NC(=O)c1cc(Cl)c(F)cc1NC(=O)CCC(F)(F)F [Example 4, (S)-5-chloro-N-(6,6-difluoro-1-(methylamino)-1,2-dioxoheptan-3-yl)-4-fluoro-2-(4,4,4-trifluorobutanamido)benzamide] | 9.9 nM
CC(F)(F)CC[C@H](NC(=O)c1cc(C(F)(F)F)cnc1NC(=O)c1cccc(C(F)(F)F)c1)C(=O)C(=O)NC1CC1 [Example 39, N-[(1S)-1-[2-(cyclopropylamino)-2-oxo-acetyl]-4,4-difluoro-pentyl]-5-(trifluoromethyl)-2-[[3-(trifluoromethyl)benzoyl]amino]pyridine-3-carboxamide] | 40.9 nM
CNC(=O)C(=O)[C@H](CCC(C)(F)F)NC(=O)c1cc(Cl)ccc1NC(=O)N(C)CC1CCC(F)(F)CC1 [Example 57, (S)-5-chloro-N-(6,6-difluoro-1-(methylamino)-1,2-dioxoheptan-3-yl)-2-(3-((4,4-difluorocyclohexyl)methyl)-3-methylureido)benzamide] | 6 nM
CNC(=O)C(=O)[C@H](CCC(C)(F)F)NC(=O)c1cc(Cl)ccc1NC(=O)C(C)c1cscn1 (stereo partly drawn) [Example 10, 5-chloro-N-[(1S)-4,4-difluoro-1-[2-(methylamino)-2-oxo-acetyl]pentyl]-2-(2-thiazol-4-ylpropanoylamino)benzamide] | 7 nM
COC(=O)N[C@H](C(=O)Nc1ccc(Cl)cc1C(=O)N[C@@H](CCC(C)(F)F)C(=O)C(=O)NC1CC1)C(C)(C)C [Example 3, Methyl ((S)-1-((4-chloro-2-(((S)-1-(cyclopropylamino)-6,6-difluoro-1,2-dioxoheptan-3-yl)carbamoyl)phenyl)amino)-3,3-dimethyl-1-oxobutan-2-yl)carbamate] | 24 nM
CNC(=O)C(=O)[C@H](CCC(C)(F)F)NC(=O)c1cc(Cl)ccc1NC(=O)C1CC1C(F)(F)F (stereo partly drawn) [Example 30, 5-chloro-N-[(1S)-4,4-difluoro-1-[2-(methylamino)-2-oxo-acctyl]pentyl]-2-[[2-(trifluoromethyl)cyclopropane-carbonyl]amino]benzamide] | 20.7 nM
CNC(=O)C(=O)[C@H](CCC(C)(F)F)NC(=O)c1cc(Cl)ccc1NC(=O)C(C)c1cscn1 (stereo partly drawn) [Example 8, 5-chloro-N-[(1S)-4,4-difluoro-1-[2-(methylamino)-2-oxo-acetyl]pentyl]-2-(2-thiazol-4-ylpropanoylamino)benzamide] | 6.6 nM
CNC(=O)C(=O)[C@H](CCC(C)(F)F)NC(=O)c1cc(Cl)ccc1NC(=O)[C@H]1CC1(F)F [Example 23, 5-chloro-2-[[(1R)-2,2-difluorocyclopropanecarbonyl]amino]-N-[(1S)-4,4-difluoro-1-[2-(methylamino)-2-oxo-acetyl]pentyl]benzamide] | 13.2 nM
CNC(=O)C(=O)[C@H](CCC(C)(F)F)NC(=O)c1cc(Cl)ccc1NC(=O)[C@H](C)OC [Example 60, 5-chloro-N-[(1S)-4,4-difluoro-1-[2-(methylamino)-2-oxo-acetyl]pentyl]-2-[[(2S)-2-methoxypropanoyl]amino] benzamide] | 9.4 nM
CNC(=O)C(=O)[C@H](CCC(C)(F)F)NC(=O)c1cc(F)cnc1NC(=O)C12CC(F)(C1)C2 [Example 35, N-[(1S)-4,4-difluoro-1-[2-(methylamino)-2-oxo-acetyl]pentyl]-5-fluoro-2-[(3-fluorobicyclo[1.1.1]pentane-1-carbonyl)amino]pyridine-3-carboxamide] | 23.9 nM
CNC(=O)C(=O)[C@H](CCC(C)(F)F)NC(=O)c1cc(Cl)cnc1NC(=O)C12CC(F)(C1)C2 [Example 38, 5-chloro-N-[(1S)-4,4-difluoro-1-[2-(methylamino)-2-oxo-acetyl]pentyl]-2-[(3-fluorobicyclo[1.1.1]pentane-1-carbonyl)amino]pyridine-3-carboxamide] | 40.4 nM
CNC(=O)C(=O)[C@H](CCC(C)F)NC(=O)c1cc(Cl)ccc1NC(=O)OC (single isomer, unassigned) [Example 6D] | 702 nM
CNC(=O)C(=O)[C@H](CCC(C)(F)F)NC(=O)c1cc(Cl)ccc1NC(=O)C1CC1C(F)(F)F (stereo partly drawn) [Example 48, 5-chloro-N-[(1S)-4,4-difluoro-1-[2-(methylamino)-2-oxo-acetyl]pentyl]-2-[[2-(trifluoromethyl)cyclopropane-carbonyl]amino]benzamide] | 11.3 nM
CNC(=O)C(=O)[C@H](CCC(C)(F)F)NC(=O)c1cc(Cl)ccc1NC(=O)c1cncc(C#N)c1 [Example 51, N-[4-chloro-2-[[(1S)-4,4-difluoro-1-[2-(methylamino)-2-oxo-acetyl]pentyl]carbamoyl]phenyl]-5-cyano-pyridine-3-carboxamide] | 15.1 nM
CNC(=O)C(=O)[C@H](CCC(C)(F)F)NC(=O)c1cc(Cl)ccc1NC(=O)C1CC12CCOCC2 (stereo partly drawn) [Example 11, N-[4-chloro-2-[[(1S)-4,4-difluoro-1-[2-(methylamino)-2-oxo-acetyl]pentyl]carbamoyl]phenyl]-6-oxaspiro[2.5]octane-2-carboxamide] | 7.7 nM
CNC(=O)C(=O)[C@H](CCC(C)F)NC(=O)c1cc(Cl)ccc1NC(=O)OC (single isomer, unassigned) [Example 6B] | 154 nM
CNC(=O)C(=O)[C@H](CCC(C)(F)F)NC(=O)c1cc(Cl)ccc1NC(=O)OC1CC1 [Example 59, cyclopropyl N-[4-chloro-2-[[(1S)-4,4-difluoro-1-[2-(mcthylamino)-2-oxo-acetyl]pentyl]carbamoyl]phenyl]carbamate] | 13.1 nM
CNC(=O)C(=O)[C@H](CCC(C)F)NC(=O)c1cc(Cl)ccc1NC(=O)OC (single isomer, unassigned) [Example 6C] | 13.6 nM
CC(F)(F)CC[C@H](NC(=O)c1cc(F)cnc1NC(=O)c1cccc(F)c1)C(=O)C(=O)NC1CC1 [Example 40, N-[(1S)-1-[2-(cyclopropylamino)-2-oxo-acetyl]-4,4-difluoro-pentyl]-5-fluoro-2-[(3-fluorobenzoyl)amino]pyridine-3-carboxamide] | 41.6 nM
CNC(=O)C(=O)[C@H](CCC(C)(F)F)NC(=O)c1cc(Cl)ncc1NC(=O)OC [Example 55, methyl N-[6-chloro-4-[[(1S)-4,4-difluoro-1-[2-(methylamino)-2-oxo-acetyl]pentyl]carbamoyl]-3-pyridyl]carbamate] | 93.8 nM
CNC(=O)C(=O)[C@H](CCC(C)(F)F)NC(=O)c1cc(Cl)cnc1NC(=O)C1CC(F)(F)C1 [Example 54, 5-chloro-2-[(3,3-difluorocyclobutanecarbonyl)amino]-N-[(1S)-4,4-difluoro-1-[2-(methylamino)-2-oxo-acetyl]pentyl]pyridine-3-carboxamide] | 7.5 nM
CC(F)(F)CC[C@H](NC(=O)c1cc(Cl)cnc1NC(=O)C12CC(C(F)(F)F)(C1)C2)C(=O)C(=O)NC1CC1 [Example 27, 5-chloro-N-[(1S)-1-[2-(cyclopropylamino)-2-oxo-acetyl]-4,4-difluoro-pentyl]-2-[[3-(trifluoromethyl)bicyclo[1.1.1]pentane-1-carbonyl]amino]pyridine-3-carboxamide] | 17.4 nM
CNC(=O)C(=O)[C@H](CCC(C)(F)F)NC(=O)c1cc(C#N)ccc1NC(=O)c1cccc(F)c1 [Example 41, 5-cyano-N-[(1S)-4,4-difluoro-1-[2-(methylamino)-2-oxo-acetyl]pentyl]-2-[(3-fluorobenzoyl)amino]benzamide] | 45.3 nM
CC(F)(F)CC[C@H](NC(=O)c1cc(Cl)cnc1NC(=O)c1cccc(C(F)(F)F)c1)C(=O)C(=O)NC1CC1 [Example 5, (S)-5-chloro-N-(1-(cyclopropylamino)-6,6-difluoro-1,2-dioxoheptan-3-yl)-2-(3-(trifluoromethyl)benzamido)nicotinamide] | 9.2 nM
CC(F)(F)CC[C@H](NC(=O)c1cc(Cl)ccc1NC(=O)c1ccnc(C(F)(F)F)c1)C(=O)C(N)=O [Example 7, (S)—N-(2-((1-amino-6,6-difluoro-1_2-dioxoheptan-3-yl)carbamoyl)-4-chlorophenyl)-2-(trifluoromethyl)isonicotinamide] | 18 nM
CNC(=O)C(=O)[C@H](CCC(C)(F)F)NC(=O)c1cc(Cl)ccc1NC(=O)CCC(F)(F)F [Example 14, 5-chloro-N-[(1S)-4,4-difluoro-1-[2-(methylamino)-2-oxo-acetyl]pentyl]-2-(4,4,4-trifluorobutanoylamino) benzamide] | 8.2 nM
